Experiment: Effect of concurrent oral dexamethasone administration on DTC 101 toxicity

Compound: C[C@@H]1C[C@H]2[C@@H]3CCC4=CC(=O)C=C[C@]4(C)[C@@]3(F)[C@@H](O)C[C@]2(C)[C@@]1(O)C(=O)CO [dexamethasone]
- effect on toxicities associated with DTC 101 (oral, 2 to 4 mg twice per day): major effect on blunting toxicities associated with DTC 101
- DTC 101 toxicity with concurrent oral dexamethasone (three patients, same dose of DTC 101 with and without dexamethasone): almost completely suppressed

From US5455044A, “Method for treating neurological disorders” (priority 1993, dated 1995)
